Data: patent US10150787B2, “TC-PTP inhibitors as APC activators for immunotherapy” (THE ROYAL INSTITUTION FOR THE ADVANCEMENT OF LEARNING / …, priority 2014, dated 2018)

Tests used:
TC-PTP = TC-PTP (Homo sapiens (Human), UniProt P17706); test: Enzyme Assay for TC-PTP; format: biochemical; settings: inhibition of TC-PTP enzymatic activity
Procedure: 1) Enzyme Assay for TC-PTP
• Assay buffer: 50 mM Bis-Tris (pH=6.3) • 2 mM EDTA • 5 mM N,N′-dimethyl-N,N′-bis(mercaptoacetyl)hydrazine (DMH) • Substrate: 10 mM fluorescein diphosphate (FOP) store at −20° C. (also can use 10 mM DiFMUP) • Enzyme dilution buffer: 50 mM Bis-Tris (pH=6.3) • 2 mM EDTA • 5 mM DMH • 20% (v/v) glycerol • 0.01% Triton X-100
The assay was carried out at room temperature in 96 well plates. The reaction mixture in 170 μl contained 50 mM Bis-Tris (pH=6.3), 2 mM EDTA, 5 mM N,N′-dimethyl-N,N′bis(mercaptoacetyl)hydrazine (DMH) and 10 μM fluorescein diphosphare (FDP) or 6,8-difluoro-4-methylumbelliferyl phosphate (DiFMUP). 10 μl of 10 concentrations (serial dilution) of the test compound (inhibitor) dissolved in DMSO or DMSO alone for control was added to each well and the plate was mixed for 2 min. The reaction was initiated by adding 20 μl of diluted TC-PTP (50 nM for FDP, 0.5 nM for DiFMUP in 50 mM Bis/Tris (pH=6.3), 2 mM EDTA, 5 mM DMH, 20% glycerol and 0.01% Triton X-100. The phosphatase activity was followed by monitoring the appearance of the fluorescent product fluorescein monophosphate (FMP) or 6,8-difluoro-7-hydroxyl-4-coumarin (DiFMU) continuously for 15-30 min, using the Spectromax Gemini fluorescent plate reader ([…]) with excitation of 440 nm and emission at 530 nm (cutoff filter at 525 nm) for FDP and excitation at 360 nm and emission at 450 nm (cutoff filter at 435 nm) for DiFMUP. All the assays were done at least in duplicate. The initial rate of FMP or DiFMU formation is plotted against the concentration of inhibitor and the data was fitted to 4-parameter equation and the inflection point of the fit is the IC50.

monocyte-derived DCs = test: Mouse Dendritic Cell Assay (IL-12 production); format: cell-based; settings: for % increase in IL-12 production: 24 h IL-12 production following 6 days of DC incubation and maturation in the presence of 32 μM of test compound vs vehicle-treated cells; for potency in the IL-12 release assay (in words): IL-12 release assay shown in Example 12
Procedure: Mouse bone marrow cells were flushed from the femur and tibia into RPMI (supplemented with 10% FBS, gentamicin, HEPES, non-essential amino acids) using a syringe equipped with a 23 gauge needle. Clumps were dispersed by gently passing the cell suspension several times through the syringe. Any remaining clumps of cells and debris were removed by passing cell suspension through a 70 μM nylon strainer. The suspension was centrifuged (300×g for 10 mins), the supernatant was discarded and the cells were resuspended in 5 ml of red cell lysis buffer (SIGMA). The cells were counted and mouse monocytes cells (CD11b+) were isolated according to the instructions for positive selection of CD11 b cells (Stemcell technologies). The cells were then resuspended in RPMI media supplemented with 10% FBS, gentamicin, Hepes and non-essential aminoacids (aa) and treated with 40 ng/ml of recombinant mouse GM-CSF and IL-4 (Peprotech). Mouse monocytes were plated at 1×10^6 cells/mL. The cells were incubated for 6 days at 37° C., 5% CO2 in a humidified incubator in the presence of different concentrations of the compounds (0-32 μM). The media was changed every three days by removing half of the media from the plate and replenishing with the same volume of fresh media supplemented with cytokines and the test compounds at the same concentrations.
Immature monocyte-derived DCs may be incubated with a DC maturation cocktail containing the test compounds and incubated for an additional 24-72 hours. There are many DC maturation cocktails identified in the literature, with the “gold standard” consisting of 10 ng/ml TNF-α, 10 ng/ml IL-1β, 1000 units/ml IL-6 and 1 μg/mL PGE2. Alternatively, MPLA (10 μg/mL) and IFNγ (500 U/ml, Peprotech, for clinical research) has also been used. For the data shown in Example 12, the immature monocyte-derived DCs were cultured with LPS (1 μg/mL)) for 48 hours to induce maturation. Test compounds were included in the maturation cocktail at concentrations varying between 1 and 32 μM.
(§1) Characteristics of the mature DCs can be determined by a number of assays including flow cytometry analysis of the surface markers expressed on DCs, the cytokine production profile of activated DCs, antigen presentation assay and in vivo experiments to assess the DC-mediated antitumor response and cancer immunity.

EG7 lymphoma cells = test: Mouse Syngeneic Tumor Model, treated with inhibitor-activated mature dendritic cells; format: in vivo; settings: tumor volume in mice 28 days following a single treatment of mature dendritic cells activated by the compound; Example 5 vs Example 6
Text: A novel dual reporter (GFP & luciferase) MSCV based plasmid was creating by subcloning from two commercially available constructs (addgene 19360: pLenti pgk and addgene 18751: MSCV-IRES-GFP). This construct was used to generate retrovirus for infection of EG7 lymphoma cells (ATCC#CRL-2133). EG7-ova expressing cells are a commonly used model for T cell lymphoma engineered to express the ovalbumin antigen making them useful in immunological and drug discovery applications. These cells were then GFP sorted at the McGill University Life Sciences Complex flow cytometry core (BD FACscalibur) prior to subcutaneous implantation (5×10^5 cells) in syngeneic C57bl6 mice (Harlan). Tumors were allowed to establish in the mice and then were imaged ten days post implantation (Perkin Elmer IVIS100) and luminescence was quantified using IVIS software. Mice were then treated on day 10 post injection with 2×10^6 ex vivo-derived and inhibitor-treated mature dendritic cells (IP injection) (see ex vivo activation of monocyte derived DC with PTP inhibitor). Ovalbulim was added to DC cultures during maturation at a concentration of 2.5 mg/mL. Following maturation, DCs were harvested by gently resuspending with phosphate-buffered saline to dislodge any loosely attached cells. Cells were then spun down and washed twice with phosphate-buffered saline. […]

[1] = system: dendritic cells derived from monocytes taken from human pancreatic cancer patients; test: Human Dendritic Cell Assay (IL-12 release); format: cell-based; settings: DCs matured in the presence of the compound vs the same cells matured without it
Procedure: A sample of human blood was diluted with an equal volume of PBS plus 2% FBS. The diluted blood was layered on top of Lymphoprep (Stemcell technologies) being careful to minimize the mixing of the blood with Lymphoprep. The mixture was centrifuged at 800×g for 20 minutes at room temperature with brake off. If the blood had been stored for more than 2 hours, the centrifugation time was increased to 30 minutes. The upper plasma layer was then removed and discarded without disturbing the plasma-lymphoprep interface. The mononuclear cell layer (PMBC) at the plasma-lymphoprep interface was removed and retained without disturbing the erythrocyte/granulocyte pellet. The mononuclear cells were washed once with media and the CD14+ cells were isolated according to the instructions for the positive selection of CD14+ kit (Stemcell technologies). The resulting CD14+ cells were cultured in PromoCell monocyte attachment media (PromoCell). Cells were plated at 0.5×10^6 cells/cm^2 and incubated for 1 h at 5% CO2 and 37° C. in a humidified incubator. […]
as §1

Chain of TC-PTP (P17706 whole entry, species assumed): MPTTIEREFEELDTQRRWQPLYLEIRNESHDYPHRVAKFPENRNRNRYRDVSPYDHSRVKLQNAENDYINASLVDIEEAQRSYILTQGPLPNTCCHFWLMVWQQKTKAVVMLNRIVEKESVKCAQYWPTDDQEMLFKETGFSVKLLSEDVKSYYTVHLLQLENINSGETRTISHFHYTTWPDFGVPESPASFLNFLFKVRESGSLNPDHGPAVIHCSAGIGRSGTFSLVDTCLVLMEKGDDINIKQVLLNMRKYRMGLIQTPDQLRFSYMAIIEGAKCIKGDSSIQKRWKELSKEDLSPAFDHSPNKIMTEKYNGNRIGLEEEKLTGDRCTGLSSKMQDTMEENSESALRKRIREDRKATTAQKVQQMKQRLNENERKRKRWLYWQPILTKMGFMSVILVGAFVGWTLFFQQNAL

Structure (SMILES)	IC50 (TC-PTP) [nM]	% increase in IL-12 production (monocyte-derived DCs) [%]	efficacy at reducing tumor volume (EG7 lymphoma cells)	potency in the IL-12 release assay (in words) (monocyte-derived DCs)	release of IL-12 [1]
CCOC(=O)c1cc2cc(C(F)(F)P(=O)(O)O)c(Br)cc2s1 [Ex. 1, ((6-Bromo-2-(Ethoxycarbonyl)Benzo[b]Thiophen-5-yl)Difluoromethyl)Phosphonate]	450	161	–	–	–
O=C(O)c1cc2cc(C(F)(F)P(=O)(O)O)c(Br)cc2s1 [Ex. 2, 6-Bromo-5-(Difluoro(Phosphonato)Methyl)Benzo[b]Thiophene-2-Carboxylate]	260	143	–	–	–
NC(=O)c1cc2cc(C(F)(F)P(=O)(O)O)c(Br)cc2s1 [Ex. 3, ((6-Bromo-2-Carbamoylbenzo[b]Thiophen-5-yl)Difluoromethyl)Phosphonate]	280	130	–	–	–
N#Cc1cc2cc(C(F)(F)P(=O)(O)O)c(Br)cc2s1 [Ex. 4, ((6-Bromo-2-Cyanobenzo[b]Thiophen-5-yl)Difluoromethyl)Phosphonate]	1200	85	–	–	–
O=P(O)(O)C(F)(F)c1cc2cc(CO)sc2cc1Br [Ex. 5, ((6-Bromo-2-(Hydroxymethyl)Benzo[b]Thiophen-5-yl)Difluoromethyl)Phosphonate]	1500	144	greater efficacy at reducing tumor volume	potent	–
N#CCc1cc2cc(C(F)(F)P(=O)(O)O)c(Br)cc2s1 [Ex. 6, ((6-Bromo-2-(Cyanomethyl)Benzo[b]Thiophen-5-yl)Difluoromethyl)Phosphonate]	370	60	–	less potent	–
CCOC(=O)c1cc2cc(Br)c(C(F)(F)P(=O)(O)O)cc2s1 [Ex. 7, ((5-Bromo-2-(Ethoxycarbonyl)Benzo[b]Thiophen-6-yl)Difluoromethyl)Phosphonate]	740	171	–	–	greater release of IL-12
COC(=O)c1cc2cc(Br)c(C(F)(F)P(=O)(O)O)cc2s1 [Ex. 8, ((5-Bromo-2-(Methoxycarbonyl)Benzo[b]Thiophen-6-yl)Difluoromethyl)Phosphonate]	2900	–	–	–	–
O=C(O)c1cc2cc(Br)c(C(F)(F)P(=O)(O)O)cc2s1 [Ex. 9, ((5-Bromo-2-(Carboxy)Benzo[b]Thiophen-6-yl)Difluoromethyl)Phosphonate]	170	–	–	–	–
N#Cc1ccc2cc(Br)c(C(F)(F)P(=O)(O)O)cc2c1 [Ex. 10, [(3-Bromo-7-Cyano-2-Naphthyl)(Difluoro)Methyl]Phosphonate]	490	42	–	–	–
